Experimental findings from US10967076B2, “Use of non-labeled sugars and detection by MRI for assessing tissue perfusion and metabolism” (The Johns Hopkins University, priority 2010, dated 2021) are described below.

The subject of assay [1] is MDA-MB-231 and MCF7 xenografts. Kind of assay: DCE-MRI with GdDTPA (post-Gd-DTPA difference images) of the xenograft mouse. Type of assay: in vivo.
From the text: We applied glucose infusion in vivo on xenografts in mice for two human breast cancer lines: less aggressive (MCF-7) and highly aggressive and metastatic (MDA-MB-231). Our MRI protocol used normal D-glucose (non-radioactive, non-hyperpolarized and not labeled with magnetic isotopes) and monitored this using glucose-based chemical exchange saturation transfer (glucoCEST) MRI. Images were compared with perfusion as assessed by dynamic contrast-enhanced (DCE) MRI and glucose uptake as assessed by FDG-PET. In-vivo animal experiments employed female SCID mice four to six weeks old. Tumor cells were implanted orthotopically in the mammary fat pad in an aseptic surgical procedure according to Institutional Animal Care and Use Committee (IACUC) guidelines. For cell implantation in the mammary fat pad, mice were anesthetized with ketamine and acepromazine (6.25 mg/kg and 62.5 mg/kg) injected in a volume of 0.05 ml using a sterile insulin syringe (28.5 G needle), and a cell suspension containing 1×10^6 MDA-MB-231 cells in 0.05 ml of Hanks balanced salt solution was injected into the upper right thoracic mammary fat pad using a sterile insulin syringe (28.5 G needle). […] Following tumor cell implants, animals were monitored until recovered from anesthesia and then checked after 6 and 12 h, then daily. […]
The subject of assay [2] is MDA-MB-231 and MCF7 xenografts. In words: dynamic glucoCEST MRI during D-glucose infusion in a xenograft mouse at 11.7 T. Format: in vivo. The note with it: FIGS. 6A-6C. The source says: FIGS. 6A-6C show results for a D-glucose infusion experiment with dynamic monitoring of the MR exchange transfer signals for a mouse with two tumor xenografts (MDA-MB-231 and MCF7) at 11.7 T for which a D-glucose infusion protocol similar to the example in FIG. 4 was used.

Assay [3] relates to MDA-MB-231 and MCF-7 xenografts. Kind of assay: steady-state glucoCEST MRI before and after D-glucose infusion in a xenograft mouse at 9.4 T. Type of assay: in vivo, mice. The note with it: offset 1.2 ppm, blood glucose about 20 mM, preliminary data, FIG. 4F. From the text:
Tumors are generally characterized by rapid glucose metabolism, increased tissue blood volume, and increased permeability to extravascular extracellular space (EES). We applied glucose infusion in vivo on xenografts in mice for two human breast cancer lines: less aggressive (MCF-7) and highly aggressive and metastatic (MDA-MB-231). Our MRI protocol used normal D-glucose (non-radioactive, non-hyperpolarized and not labeled with magnetic isotopes) and monitored this using glucose-based chemical exchange saturation transfer (glucoCEST) MRI. Images were compared with perfusion as assessed by dynamic contrast-enhanced (DCE) MRI and glucose uptake as assessed by FDG-PET. In-vivo animal experiments employed female SCID mice four to six weeks old. Tumor cells were implanted orthotopically in the mammary fat pad in an aseptic surgical procedure according to Institutional Animal Care and Use Committee (IACUC) guidelines. […] Following tumor cell implants, animals were monitored until recovered from anesthesia and then checked after 6 and 12 h, then daily. […]

For assay [4] the test system is unchanged. In words: 18F-FDG-PET of the xenograft mouse. The note with it: 1 hr post-injection, FIG. 5B. Type of assay: in vivo.
From the text: We applied glucose infusion in vivo on xenografts in mice for two human breast cancer lines: less aggressive (MCF-7) and highly aggressive and metastatic (MDA-MB-231). Our MRI protocol used normal D-glucose (non-radioactive, non-hyperpolarized and not labeled with magnetic isotopes) and monitored this using glucose-based chemical exchange saturation transfer (glucoCEST) MRI. Images were compared with perfusion as assessed by dynamic contrast-enhanced (DCE) MRI and glucose uptake as assessed by FDG-PET. In-vivo animal experiments employed female SCID mice four to six weeks old. Tumor cells were implanted orthotopically in the mammary fat pad in an aseptic surgical procedure according to Institutional Animal Care and Use Committee (IACUC) guidelines. For cell implantation in the mammary fat pad, mice were anesthetized with ketamine and acepromazine (6.25 mg/kg and 62.5 mg/kg) injected in a volume of 0.05 ml using a sterile insulin syringe (28.5 G needle), and a cell suspension containing 1×10^6 MDA-MB-231 cells in 0.05 ml of Hanks balanced salt solution was injected into the upper right thoracic mammary fat pad using a sterile insulin syringe (28.5 G needle). […] Following tumor cell implants, animals were monitored until recovered from anesthesia and then checked after 6 and 12 h, then daily.

For `O=C([O-])CN(CCN(CC(=O)[O-])CC(=O)O)CCN(CC(=O)[O-])CC(=O)O.[Gd+3]` [Gd-DTPA, Gadolinium-DiethyleneTriaminePentaacetic Acid], the “visualization of the tumor mass” value in assay [1] (0.2 mmole/kg GdDTPA, FIG. 5C) is reported as “good visualization of the tumor mass relative to normal tissue”. In addition, the “highlighting of the necrotic area in the MCF7 tumor” value in assay [1] (Gd perfusion scan) is reported as “did not highlight the necrotic area in the MCF7 tumor”.

For the compound `O=C[C@H](O)[C@@H](O)[C@H](O)[C@H](O)CO` [D-glucose], in assay [2], the “uptake (MTRasym signal changes as a function of time during infusion, rim and tumor center)” value is “uptake is higher in the more malignant MDA-MB-231 tumor”. Moreover, the “glucose uptake (MTR asymmetry histograms before and after infusion, ROIs)” value in assay [3] is “a trend towards higher glucose uptake in the malignant MDA-MB-231 tumor (ROI 1) as well as in the necrotic area in the MCF7 tumor (ROI 2)”.

Turning to Fluorodeoxyglucose [^18F-FDG], the “glucose uptake on PET” value in assay [4] is listed as “the MDA-MB-231 tumor exhibits a higher glucose uptake than the MCF-7 tumor”.
